Source: patent US5914314A (priority 1989, dated 1999)

Columns and labels:
[1] = topical application to scalp, hair growth; type: in vivo, human; conditions: Case XXX: balding patient; topically to scalp
Description: This patient was diagnosed in January, 1990. A gastric resection and colonic replacement of oesophagus (for swallowing) was performed. They had also developed an intraperitoneal tumor. They were given chemotherapy and lost their hair. […] Dr. Falk saw this patient on Jun.
This balding patient applied the product "minoxidil" sold under the trademark "ROGAINE" topically to their scalp.

tumor = conditions: injected directly into a tumor
[2] = system: Grafts from ACI strain rats (black) to Lewis Strain rats (white); assay: standard rat skin graft rejection model; type: in vivo; conditions: hyaluronic acid added to cyclosporin
[3] = side effects / toxicity in human patients; type: in vivo; conditions: 10 to 1000 mg/70 kg person
[4] = Case XXVIII: carcinoma of the ovary, 40 kg; 120-200 mg LASIX intravenously
[5] = following intravenous administration; cited from earlier work

## Nc1cc(N2CCCCC2)nc(N)[n+]1[O-] [ROGAINE, minoxidil]
[1]
  hair growth: minimal or little hair growth

## CCO [ethyl alcohol]
tumor
  dispersion in tumor, sonographic (ultrasound) assessment: not dispersed throughout the tumor

## hyaluronic acid
[2]
  cyclosporin induced graft survival: significantly increased cyclosporin induced graft survival
[3]
  toxicity: no toxicity

## NS(=O)(=O)c1cc(C(=O)O)c(NCc2ccco2)cc1Cl [LASIX, furosemide]
[4]
  total volume of urine over 48 hours: 2,450 ml
[5]
  duration of action: about 2 hours
  onset of diuresis: ≤ 30 min
